Source: the supplement of paper PMC4449167
± gives the standard deviation of the averaged measurements.

Tested on: WB-F344
Test: gap junctional intercellular communication (dye spread) relative to vehicle control (fraction of control); higher = more gap junction communication (less inhibition)
Description: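 Confluent WB-F344 rat liver epithelial cells were pretreated with vehicle, D609 (PC-PLC inhibitor, 50 µM, 20 min), U0126 (MEK1/2 inhibitor, 20 µM, 30 min) or resveratrol (100 µM, 15 min), then exposed to a GJIC-dysregulating chemical at the listed dose and time. GJIC was measured by scalpel loading-dye transfer with Lucifer Yellow (3 min), and the dye-spread area was quantified in ImageJ as a fraction of the vehicle control (FOC). Individual values come from at least 3 independent experiments.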

[1] = pretreatment: D609+GJIC dysreg.
[2] = pretreatment: U0126+GJIC dysreg.

Row | Structure (SMILES) | gap junctional intercellular communication [1] | gap junctional intercellular communication (pretreatment: GJIC dysreg.) | gap junctional intercellular communication (pretreatment: RES+GJIC dysreg.) | gap junctional intercellular communication [2] | gap junctional intercellular communication (dose note: (70 uM), pretreatment: D609+GJIC dysreg.) | gap junctional intercellular communication (dose note: (70 uM), pretreatment: GJIC dysreg.) | gap junctional intercellular communication (dose note: (70 uM), pretreatment: RES+GJIC dysreg.) | gap junctional intercellular communication (dose note: (70 uM), pretreatment: U0126+GJIC dysreg.) | gap junctional intercellular communication (dose note: (100 uM), pretreatment: D609+GJIC dysreg.) | gap junctional intercellular communication (dose note: (100 uM), pretreatment: GJIC dysreg.) | gap junctional intercellular communication (dose note: (100 uM), pretreatment: RES+GJIC dysreg.) | gap junctional intercellular communication (dose note: (100 uM), pretreatment: U0126+GJIC dysreg.)
1 | Cc1nc2sccn2c(=O)c1CCN1CCC(=C(c2ccccc2)c2ccc(F)cc2)CC1 (compound abbreviation / co-treatment: R59022, exposure (dose, time): 30-50 µM, 10 min) | 0.848 ± 0.081 | 0.344 ± 0.13 | 0.867 ± 0.16 | 0.641 ± 0.11 | – | – | – | – | – | – | – | –
2 | Cl[C@H]1[C@H](Cl)[C@@H](Cl)[C@@H](Cl)[C@H](Cl)[C@H]1Cl [Lindane] (compound abbreviation / co-treatment: Lindane, exposure (dose, time): 60 µM, 25 min) | 0.335 ± 0.046 | 0.282 ± 0.062 | 0.741 ± 0.048 | 0.695 ± 0.16 | – | – | – | – | – | – | – | –
3 | CCc1cccc(CC)c1N(COC)C(=O)CCl [Alachlor] (compound abbreviation / co-treatment: Alachlor, exposure (dose, time): 185 µM, 25 min) | 0.285 ± 0.08 | 0.259 ± 0.072 | 0.789 ± 0.14 | 0.356 ± 0.12 | – | – | – | – | – | – | – | –
4 | O=C(OOC(=O)c1ccccc1)c1ccccc1 [Benzoylperoxide] (compound abbreviation / co-treatment: BzOOH, exposure (dose, time): 200 µM, 15 min) | 0.373 ± 0.057 | 0.368 ± 0.085 | 0.313 ± 0.084 | 0.33 ± 0.14 | – | – | – | – | – | – | – | –
5 | Clc1ccc(C(c2ccccc2Cl)C(Cl)(Cl)Cl)cc1 (stereo not given) [1,1,1-Trichloro-2-(2-chlorophenyl)-2-(4-chlorophenyl)ethane] (compound abbreviation / co-treatment: DDT, exposure (dose, time): 30 µM,  20 min) | 0.832 ± 0.089 | 0.308 ± 0.053 | 0.777 ± 0.025 | 0.337 ± 0.082 | – | – | – | – | – | – | – | –
6 | Cc1c2ccccc2c(C)c2ccccc12 [9,10-Dimethylanthracene] (compound abbreviation / co-treatment: 9,10-DiMeA, exposure (dose, time): 70-100 µM, 10 min) | – | – | – | – | 0.888 ± 0.038 | 0.213 ± 0.06 | 0.744 ± 0.14 | 0.342 | 0.937 ± 0.033 | 0.317 ± 0.041 | 0.871 ± 0.15 | 0.356 ± 0.096
7 | Cc1cccc2cc3ccccc3cc12 [1-Methylanthracene] (compound abbreviation / co-treatment: 1-MeA, exposure (dose, time): 70 µM, 10 min) | 0.872 ± 0.094 | 0.278 ± 0.066 | 0.818 ± 0.14 | 0.262 ± 0.067 | – | – | – | – | – | – | – | –
8 | CCCCCCCCCCCCCC(=O)O[C@@H]1[C@@H](C)[C@@]2(O)[C@@H](C=C(CO)C[C@]3(O)C(=O)C(C)=C[C@@H]23)[C@@H]2C(C)(C)[C@]12OC(C)=O [12-O-tetradecanoylphorbol-13-acetate] (compound abbreviation / co-treatment: TPA, exposure (dose, time): 10 nM, 30 min) | 0.309 ± 0.077 | 0.202 ± 0.031 | 1.05 ± 0.13 | 0.967 ± 0.092 | – | – | – | – | – | – | – | –
9 | O=C(O)C(F)(F)C(F)(F)C(F)(F)C(F)(F)C(F)(F)C(F)(F)C(F)(F)C(F)(F)C(F)(F)F [Perfluorodecanoic acid] (compound abbreviation / co-treatment: PFDA, exposure (dose, time): 50 µM, 20 min) | 0.46 ± 0.12 | 0.22 ± 0.033 | 0.225 ± 0.023 | 0.239 ± 0.046 | – | – | – | – | – | – | – | –
